The source of these data is patent US8383125B2, “Antimicrobial protein” (Agriculture Victoria Services Pty, Limited, priority 2006, dated 2013).

As usually defined, the MIC is the lowest concentration that inhibits growth of the organism.

The subject of data set [1] is A. baumannii strain FADDI 007. The format is cell-based, Acinetobacter baumannii. The following applies: strain FADDI 007, 17 h. The protocol: (§1) The MIC values of SEQ ID NO: 2 and SEQ ID NO: 19 were also determined against a range of multidrug-resistant isolates, including clinical and laboratory strains. Peptides, maintained at −20° C. in solid form for storage purposes, were subsequently dissolved in 0.01% (v/v) acetic acid (Sigma-Aldrich) to a stock concentration of […]. The stock solutions were made fresh for each experiment. Eighteen (18) bacterial isolates obtained from the Facility for Anti-Infective Drug Development and Innovation, Victoria, Australia (FADDI) as listed in Table 2 were maintained as stock cultures in Tryptic Soya Broth plus 20% (v/v) glycerol at a temperature of −80° C., and subcultured onto Nutrient Agar for each experiment. MIC values were determined in cation-adjusted Mueller-Hinton broth (CAMHB) and Mueller-Hinton broth (MHB) using standard broth micro-dilution methods.

In data set [2] the test system is A. baumannii strain FADDI 006. The format is cell-based, Acinetobacter baumannii. The following applies: strain FADDI 006, 17 h. The protocol:
as §1

The test system of data set [3] is P. aeruginosa strain FADDI 001. In kind it is cell-based, Pseudomonas aeruginosa. The settings on record: strain FADDI 001, 17 h. The protocol: as §1
Data set [4] relates to P. aeruginosa strain FADDI 003. In kind it is cell-based, Pseudomonas aeruginosa. The following applies: strain FADDI 003, 17 h. The protocol:
as §1

Data set [5] deals with P. aeruginosa strain FADDI 004. In kind it is cell-based, Pseudomonas aeruginosa. The settings on record: strain FADDI 004, 17 h. The protocol: as §1
Data set [6] has as its system P. aeruginosa strain FADDI 002. In kind it is cell-based, Pseudomonas aeruginosa. The following applies: strain FADDI 002, 17 h. The protocol: as §1
The test system of data set [7] is A. baumannii strain FADDI 005 (ATCC 19606 derivative). The format is cell-based, Acinetobacter baumannii. The following applies: 17 hr at 35° C. The protocol:
as §1
Pseudomonas aeruginosa (ATCC 27853) and S. aureus (ATCC 43300) were included as quality controls in experiments. P. aeruginosa strains FADDI 001 and FADDI 002 are mucoid; and P. aeruginosa strains FADDI 003 and FADDI 004 are non-mucoid. P. aeruginosa strain FADDI 003 also has a small colony morphology. The A. baumannii strain FADDI 005 is a colistin-resistant isolate obtained from Mueller-Hinton agar containing 10 mg/L colistin.

The test system of data set [8] is E. coli DH5α. The settings on record: 5 μl of 250 μg/ml solutions of each peptide; E. coli.
Experimental: Briefly, approximately 4×10^6 of mid-logarithmic-phase organisms were grown on plates in 11 ml of warm 0.8% agarose containing 0.03% (w/v) Tryticase soy broth (TSB) powder, with or without 100 mM NaCl, buffered with 10 mM sodium phosphate, pH 7.4. The test peptide was serially diluted in acidified water (0.01% acetic acid), and 5 μl of diluted peptide sample was loaded in a 2.5 diameter well in the agarose. A 10 ml overlay gel composed of 6% TSB, 0.8% agarose and 10 mM sodium phosphate buffer (pH 7.4) was poured into each well. Plates were then incubated overnight to allow the surviving organisms to form microcolonies. The clear zone were measured to the nearest 0.1 mm using a magnified transilluminator and expressed in units (1 mm=10 U) after subtracting the well diameter. The minimum inhibitory concentration (MIC) is defined by the χ intercept of a regression line through zone diameters obtained from a series of serially diluted peptide samples.
For data set [9], the system named is Candida albicans (ATCC 753). In kind it is cell-based. The settings on record: Table 1.
The test system of data set [10] is S. aureus strain FADDI 011. The format is cell-based, Staphylococcus aureus. The settings on record: strain FADDI 011, 17 h. The protocol: as §1
Data set [11] relates to S. aureus 700699. In kind it is cell-based, Staphylococcus aureus. The following applies: 700699, 17 h. The protocol:
as §1

The test system of data set [12] is S. aureus (ATCC 43300). The format is cell-based, Staphylococcus aureus. The following applies: ATCC 43300, 17 h. The protocol: as §1
In data set [13] the test system is Streptococcus equi equi (ATCC 9527). The format is cell-based. The following applies: Table 1.
Data set [14] has as its system K. pneumoniae strain FADDI 008. In kind it is cell-based, Klebsiella pneumoniae. The following applies: strain FADDI 008, 17 h. The protocol:
as §1

In data set [15] the test system is K. pneumoniae strain FADDI 009. The format is cell-based, Klebsiella pneumoniae. The settings on record: strain FADDI 009, 17 h. The protocol:
as §1

The subject of data set [16] is K. pneumoniae strain FADDI 010. The format is cell-based, Klebsiella pneumoniae. The settings on record: strain FADDI 010, 17 h. The protocol: as §1
The subject of data set [17] is tammar wallaby erythrocytes. In kind it is cell-based. The protocol:
The toxicity of the antimicrobial peptides was determined using a haemolytic assay. In particular, the hemolytic activity of the peptides was determined using tammar wallaby erythrocytes. Fresh erythrocytes were harvested from heparinized blood taken from a tammar wallaby. Erythrocytes were harvested by centrifugation for 3 min at 3000 g. Erythrocytes were then washed three times with PBS (pH 7.4) until the supernatant was essentially colourless. 20 μl two fold serial dilutions of the peptide were mixed with the same volume of erythrocytes in solution 2%) in PBS of each well of a 96-plate. 80 μl PBS was added to each well after the plate was incubated at 37° C. for one hour. Plates were then centrifuged at 3000 g for 5 min. 90 μl of the resulting supernatant was transferred to a flat-bottom microtiter plate and haemoglobin release was monitored by measuring the absorbance at 414 nm with an ELISA plate reader. […] Each sample was performed in triplicate. Percentage hemolysis was calculated by the following formula: [(OD414 peptide−OD414 buffer)/OD414 complete hemolysis−OD414 buffer)]×100%.

Data set [18] relates to Staphylococcus aureus (ATCC 700698). The format is cell-based. The settings on record: ATCC 700698, 17 h. The protocol: as §1
Data set [19] deals with Enterococcus faecium (ATCC 700221). In kind it is cell-based. The settings on record: ATCC 700221, 17 h. The protocol: as §1
Data set [20] has as its system Bacillus subtilis. In kind it is cell-based. The following applies: Table 1.
Data set [21] concerns Pseudomonas aeruginosa (ATCC 27853). More on the design: key: resistant (R); susceptible (S). The settings on record: Reference isolate; cited from earlier work.
Data set [22] relates to A. baumannii strain FADDI 005 (ATCC 19606 derivative). Details: key: resistant (R); susceptible (S). The settings on record: Laboratory prepared; obtained from Mueller-Hinton agar containing 10 mg/L colistin; cited from earlier work.
For data set [23], the system named is Acinetobacter baumannii (ATCC 19606). More on the design: key: resistant (R); susceptible (S). The following applies: Reference isolate; cited from earlier work.
For data set [24], the system named is Klebsiella pneumoniae (ATCC 13883). Details: key: resistant (R); susceptible (S). The following applies: Reference isolate; cited from earlier work.
Data set [25] has as its system P. aeruginosa strain FADDI 001. More on the design: key: resistant (R); susceptible (S). The settings on record: Clinical specimen; cited from earlier work.
Data set [26] concerns A. baumannii strain FADDI 006. Details: key: resistant (R); susceptible (S). The settings on record: Clinical specimen; cited from earlier work.
Data set [27] relates to K. pneumoniae strain FADDI 010. Details: key: resistant (R); susceptible (S). The following applies: Clinical specimen; cited from earlier work.
Data set [28] has as its system K. pneumoniae strain FADDI 008. Details: key: resistant (R); susceptible (S). The settings on record: Clinical specimen; cited from earlier work.
In data set [29] the test system is K. pneumoniae strain FADDI 009. Details: key: resistant (R); susceptible (S). The settings on record: Clinical specimen; cited from earlier work.
Data set [30] relates to P. aeruginosa strain FADDI 004. More on the design: key: resistant (R); susceptible (S). The settings on record: Clinical specimen; cited from earlier work.
Data set [31] relates to P. aeruginosa strain FADDI 002. More on the design: key: resistant (R); susceptible (S). The settings on record: Clinical specimen; cited from earlier work.
The test system of data set [32] is A. baumannii strain FADDI 007. Details: key: resistant (R); susceptible (S). The settings on record: Clinical specimen; cited from earlier work.
The test system of data set [33] is P. aeruginosa strain FADDI 003. More on the design: key: resistant (R); susceptible (S). The following applies: Clinical specimen; cited from earlier work.

Like-named read-outs stand apart in the source and are kept apart here. Where no end group is shown, it is not given here.

Take “KRGLWESLKRKATKLGDDIRNTLRNFKIKFPVPRQ-NH2 [SEQ ID NO: 19]”: the MIC is 16 µg/mL in data set [1]; >64 µg/mL in [2]; >64 µg/mL in [3]; >64 µg/mL in data set [4]; >64 µg/mL in data set [5]; >64 µg/mL in data set [6]. Besides, the MIC is 8 µg/mL in [7] (CAMHB (10.0 mg/L Mg2+ and 24 mg/L Ca2+)); 16 µg/mL in data set [7] (MHB (less than 5 mg/L Mg2+ and 24 mg/L Ca2+)); >64 µg/mL in data set [10]; >64 µg/mL in data set [11]; >64 µg/mL in data set [12]; >64 µg/mL in data set [14]. For the same substance, the minimal inhibitory concentration (MIC) in data set [15] was >64 µg/mL; in [16], >64 µg/mL; in [18] it was >64 µg/mL; in data set [19], 16 µg/mL. Further, the “radial clear zone compared to LL-37 (FIG. 3)” value in data set [8] is listed as “larger radial clear zone”. The figures for the “antimicrobial activity in words” value in [9], in [13] and in [20] were “Weaker antimicrobial activity”, “moderately protective” and “moderately protective”, respectively. Besides, the “haemolysis at the MIC determined in Example 1” value in [17] is on record as “less than 5%”. In addition, in [17], the “haemolysis at the majority of concentrations tested (FIGS. 2a and 2b)” value is reported as “did not cause substantial levels of haemolysis”.

Take colistin: the “Colistin resistant (R) or susceptible (S)” value (“Colistin resistant” for short) is recorded as “S” in [21]; “R” in data set [22]; “S” in data set [23]; “S” in data set [24]; “S” in data set [25]; “R” in data set [26]. Further, the “Colistin resistant” value in data set [27] was “R”; in [28], “S”; in [29], “R”; in data set [30], “R”; in data set [31], “S”; in data set [32], “S”. In addition, in data set [33], the “Colistin resistant” value is recorded as “R”.
